Test results as given in patent US9738614B2, “Malignant and non-malignant disease treatment with Ras antagonists” (PISCES THERAPEUTICS, LLC, priority 2011, dated 2017).
pIC50: −log10 of the molar value.

Test system: U87MG cells
Assay: Cell proliferation assay for U87MG cells
Type: cell-based
Protocol: The adult glioblastoma cell line U87MG was obtained from a commercial source (ATCC). The pancreatic cancer cell line PANC-1 was obtained from a local laboratory (Indiana University). Both lines were grown in Iscove's Modified Dulbecco's Medium with 10% fetal bovine serum (FBS) at 37° C. and 5% CO2.
Compounds (1), (2), (3), (4), and (5), which are shown and described above, were each dissolved in ethanol at 10 mg/mL. A measured portion of the solution was pipetted into a microcentrifuge tube. Then, the ethanol was evaporated from each tube using a SpeedVac®, leaving just the compound in the tube. The appropriate amount of chloroform was added to the tube to produce a 0.1 M concentration. The solutions were placed on ice and in the dark so they could be pipetted into 10- and 20-μL aliquots in 1.5 mL microcentrifuge tubes. The solutions were frozen at […] with lids closed tightly and the tubes covered with foil.
Prior to treating the cells, a tube of the test compound was removed from the freezer and placed under a biosafety hood to evaporate the chloroform in the tubes. Then, dimethyl sulfoxide (DMSO) was added to the tubes to make the correct concentration to use in the experiment (0.1 M stock). The tubes were vortexed, and warm media with 10% FBS was slowly added to make the correct working concentrations to be used in the experiment. The compounds were directly added to each well for treatment.
U87MG cells were seeded in a 24-well plate, 5000 cells per well, and incubated overnight at 37° C. in serum-free media. The next day they were treated in triplicate with 50 and 100 μM of each test compound (1), (2), (3), (4), and (5) and the reference compound FTS. After five days, the cells were trypsinized (0.5%), stained with trypan blue, and counted to determine the cell number per well. The half-maximal inhibitory concentration (IC50) values were calculated using Multiplex Reader-Fit software made by MiraiBio Group, Hitachi Solutions America, Ltd. In a typical experiment, the control wells averaged 138,000 cells. The results are presented graphically in FIG. 1. The test compounds at 50 μM allowed the following U87MG cell proliferation compared to control: compound (1)—37%, compound (2)—18%, compound (3)—10%, compound (4)—40%, and compound (5)—0%. The reference compound FTS at 50 μM allowed 7% cell proliferation compared to control.
To further evaluate compounds (3) and (5), which inhibited the most cell growth in FIG. 1, more U87MG cells were seeded in 24-well plates, 5000 cells per well, and incubated overnight at 37° C. in serum-free media. The cells were treated the next morning in media with 5% serum in triplicate with standard concentrations of 6.25, 12.5, 25, and 50 μM of each test compound (3) and (5) and the reference compound FTS. After five days of treatment, the cells were trypsinized (0.5%) and then stained with trypan blue. Cells were counted to determine the number of cells per well. Again, the IC50 values were calculated using Multiplex Reader-Fit software made by MiraiBio Group, Hitachi Solutions America, Ltd. In a typical experiment, the control wells averaged 56,000 cells. The results are presented graphically in FIG. 2. The test compounds at 25 μM allowed the following U87MG cell proliferation compared to control: compound (3)—69% and compound (5)—0%. The reference compound FTS at 25 μM allowed over 50% cell proliferation compared to control.
Since the doses of compound (5) used above killed all of the cells, the dose curve was set up again using even lower doses of compound (5). U87MG cells were seeded in 24-well plates, 5000 cells per well, and incubated overnight at 37° C. in serum-free media. The cells were treated in triplicate with 6.25, 12.5, 25, and 50 μM of the reference compound FTS and 0.3125, 0.625, 1.25, 2.5, and 5.0 μM of the test compound (5) in media with 5% serum for five days. Then, the cells were trypsinized (0.5%) and stained with trypan blue, and the cell number per each well was determined. […]

pIC50 (Homo sapiens, U-87 MG, value quoted in Example 7, read-out: IC50 as determined on the U87MG cells): 5.60
SMILES: CC(C)=CCC/C(C)=C/CC/C(C)=C/CSc1ccccc1C1=NCCN1 [compound (5), 2-(2-{[(2E,6E)-3,7,11-trimethyldodeca-2,6,10-trien-1-yl]sulfanyl}phenyl)-4,5-dihydro-1H-imidazole]
U87MG cell proliferation compared to control (2.5 μM, media with 5% serum, five days (FIG. 2)): 56% | U87MG cell proliferation compared to control (25 μM, media with 5% serum, five days (FIG. 2)): 0% | U87MG cell proliferation compared to control (50 μM, five days, trypan blue cell count (FIG. 1)): 0%
